Measurements taken from patent publication US6548270B1, “DNA encoding human acid-sensing ion channel BNaC4 (ASIC4)” (Ortho-McNeil Pharmaceutical, Inc., priority 2000, dated 2003).

Assays:
ASIC1B = target: T1, ASIC1B (Rattus norvegicus, UniProt P55926); conditions: read-out: Amiloride sensitivity, IC50; cited from earlier work
T1 sequence (P55926 1-559 isoform P55926-3): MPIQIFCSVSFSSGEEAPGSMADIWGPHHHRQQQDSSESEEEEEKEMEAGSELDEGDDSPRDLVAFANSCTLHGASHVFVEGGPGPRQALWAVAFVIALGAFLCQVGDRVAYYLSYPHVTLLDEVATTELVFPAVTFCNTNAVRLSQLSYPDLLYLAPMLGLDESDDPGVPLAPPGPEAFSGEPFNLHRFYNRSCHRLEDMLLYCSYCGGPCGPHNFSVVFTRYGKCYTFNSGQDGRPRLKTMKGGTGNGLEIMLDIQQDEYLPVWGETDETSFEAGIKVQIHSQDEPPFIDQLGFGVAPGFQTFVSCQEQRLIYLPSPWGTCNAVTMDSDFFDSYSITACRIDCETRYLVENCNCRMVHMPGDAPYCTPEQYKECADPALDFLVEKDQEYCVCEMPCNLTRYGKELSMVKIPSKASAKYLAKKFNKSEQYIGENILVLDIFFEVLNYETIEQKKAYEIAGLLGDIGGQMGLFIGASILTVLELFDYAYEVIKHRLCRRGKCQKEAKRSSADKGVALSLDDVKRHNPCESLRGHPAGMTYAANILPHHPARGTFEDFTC

human BNaC4 = target: T2, human BNaC4 (Homo sapiens, UniProt Q96FT7); test: pH 4.5-elicited current in HEK293 cells transiently expressing human BNaC4 (whole cell patch clamp); type: cell-based; parameters: achieved by transfection of full-length human BNaC4 cDNA into a mammalian host cell; expressed in transfected cells; host or cells: HEK293, transient co-transfection of phBNaC4 (pCI Neo) and pEGFP; conditions: 500 uM amiloride; HEK293 cells transfected with hBNaC4; n=3
T2 sequence (Q96FT7 1-539): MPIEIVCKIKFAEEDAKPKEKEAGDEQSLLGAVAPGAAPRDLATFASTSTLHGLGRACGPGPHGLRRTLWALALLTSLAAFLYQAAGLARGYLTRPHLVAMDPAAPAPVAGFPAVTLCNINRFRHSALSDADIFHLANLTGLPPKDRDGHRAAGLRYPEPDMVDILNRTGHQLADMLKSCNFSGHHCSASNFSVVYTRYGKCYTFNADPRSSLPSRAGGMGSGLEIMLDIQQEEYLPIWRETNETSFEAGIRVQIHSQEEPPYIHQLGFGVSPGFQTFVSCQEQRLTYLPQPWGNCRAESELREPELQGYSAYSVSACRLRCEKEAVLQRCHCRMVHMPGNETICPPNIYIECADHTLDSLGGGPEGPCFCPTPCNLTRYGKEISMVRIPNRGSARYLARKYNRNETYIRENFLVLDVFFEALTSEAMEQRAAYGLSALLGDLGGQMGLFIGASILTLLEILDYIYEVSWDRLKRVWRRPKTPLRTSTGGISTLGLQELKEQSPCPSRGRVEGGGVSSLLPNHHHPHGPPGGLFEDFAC
Method: Human HEK293 cells were transfected with human BNaC4 (phBNaC4) together with the pEGFP vector (Clontech). Transient transfections 2 μg of phBNAC4 together with 1 μg pEGFP per 10^6 cells per 100 mm dish are performed using the Effectene transfection kit (Quiagen; 301425). Two to three days after transfection, cells are plated onto 12 mm round coverslips and maintained in growth media overnight. After one day, wells were tested for their whole cell response to application of low pH from nearby puffer pipettes using whole cell voltage clamp. Cells expressing GFP were tested (GFP-positive cells). Transfections with vector alone with GFP were used as controls (GFP-positive). […] The standard physiological saline (“Tyrodes”) contained: 130 mM NaCl, 4 mM KCl, 1 mM CaCl2, 1.2 mM MgCl2, and 10 mM hemi-Na-HEPES (pH 7.3, 295-300 mOsm as measured using a Wescor 5500 vapor-pressure (Wescor, Inc., Logan, Utah). Recording electrodes were fabricated from borosilicate capillary tubing (R6; Garner Glass, Claremont, Calif.), the tips are coated with dental periphery wax (Miles Laboratories, South Bend, Ind.), and have resistances of 1-2 MΩ when containing intracellular saline: 100 mM K-gluconate, 25 mM KCl, 0.483 mM CaCl2, 3 mM MgCl2, 10 mM hemi-Na-HEPES and 1 mM K4-BAPTA (100 nM free Ca^+2); pH 7.4, with dextrose added to achieve 290 mOsm). […]

N=C(N)NC(=O)c1nc(Cl)c(N)nc1N [amiloride]
IC50 (ASIC1B): 21 µM
block of the pH 4.5 effect (current elicited by pH 4.5) (human BNaC4): 98+/−2%
